Tests used:
HCT-116 [1] = assay: Antiproliferative activity against human HCT-116 cells assessed as cell viability at 1 uM incubated for 72 hrs by luminescence assay; format: functional, cell-based; details: for viability at 1 µM: HCT-116, dose 1 µM, time 72 hrs, read-out: Activity; for IC50: HCT-116, 72 h
Histone deacetylase 1 = Histone deacetylase 1 (Homo sapiens, UniProt Q13547); assay: Inhibition of HDAC1 (unknown origin) using p53 (379 to 382 residues) (RHKK(Ac-AMC) as fluorogenic substrate incubated for 1 hrs by fluorescence based assay
[2] = Binding affinity to SNAI1 (unknown origin) assessed as dissociation constant; design: species or system Homo sapiens
[3] = Metabolic stability in monkey liver microsomes assessed as intrinsic clearance incubated for 10 mins by LC-MS/MS analysis; format: ADME, Macaca mulatta, Microsome; details: rhesus monkey, read-out: CLH
[4] = Metabolic stability in human liver microsomes assessed as intrinsic clearance incubated for 10 mins by LC-MS/MS analysis; format: ADME, Microsome; details: read-out: CLH
[5] = Metabolic stability in rat liver microsomes assessed as half life incubated for 10 mins by LC-MS/MS analysis; format: ADME, Microsome
[6] = Metabolic stability in human plasma assessed as parent compound remaining at 100 uM measured after 2 hrs by LC-MS/MS analysis; format: ADME, cell-free; details: read-out: Stability
[7] = Metabolic stability in dog liver microsomes assessed as intrinsic clearance incubated for 10 mins by LC-MS/MS analysis; format: ADME, Canis lupus familiaris, Microsome; details: read-out: CLH
[8] = Metabolic stability in monkey liver microsomes assessed as half life incubated for 10 mins by LC-MS/MS analysis; format: ADME, Macaca mulatta, Microsome; details: rhesus monkey
[9] = Metabolic stability in dog liver microsomes assessed as half life incubated for 10 mins by LC-MS/MS analysis; format: ADME, Canis lupus familiaris, Microsome
[10] = Metabolic stability in rat plasma assessed as parent compound remaining at 100 uM measured after 2 hrs by LC-MS/MS analysis; format: ADME, cell-free; details: read-out: Stability
[11] = Metabolic stability in human liver microsomes assessed as half life incubated for 10 mins by LC-MS/MS analysis; format: ADME, Microsome
[12] = Metabolic stability in rat plasma assessed as half life at 100 uM measured upto 120 mins by LC-MS/MS analysis; format: ADME, cell-free
[13] = Metabolic stability in dog plasma assessed as half life at 100 uM measured upto 120 mins by LC-MS/MS analysis; format: ADME, cell-free, Canis lupus familiaris
[14] = Metabolic stability in dog plasma assessed as parent compound remaining at 100 uM measured after 2 hrs by LC-MS/MS analysis; format: ADME, cell-free, Canis lupus familiaris; details: read-out: Stability
[15] = Metabolic stability in monkey plasma assessed as parent compound remaining at 100 uM measured after 2 hrs by LC-MS/MS analysis; format: ADME, cell-free, Macaca mulatta; details: rhesus monkey, read-out: Stability
[16] = Metabolic stability in rat liver microsomes assessed as intrinsic clearance incubated for 10 mins by LC-MS/MS analysis; format: ADME, Microsome; details: read-out: CLH
HCT-116 [17] = assay: Antiproliferative activity against human HCT-116 cells assessed as reduction in cell viability incubated for 72 hrs by luminescence assay; format: functional, cell-based; details: HCT-116, 72 h

Histone deacetylase 1, sequence (Q13547 whole entry, the tested form may be a part): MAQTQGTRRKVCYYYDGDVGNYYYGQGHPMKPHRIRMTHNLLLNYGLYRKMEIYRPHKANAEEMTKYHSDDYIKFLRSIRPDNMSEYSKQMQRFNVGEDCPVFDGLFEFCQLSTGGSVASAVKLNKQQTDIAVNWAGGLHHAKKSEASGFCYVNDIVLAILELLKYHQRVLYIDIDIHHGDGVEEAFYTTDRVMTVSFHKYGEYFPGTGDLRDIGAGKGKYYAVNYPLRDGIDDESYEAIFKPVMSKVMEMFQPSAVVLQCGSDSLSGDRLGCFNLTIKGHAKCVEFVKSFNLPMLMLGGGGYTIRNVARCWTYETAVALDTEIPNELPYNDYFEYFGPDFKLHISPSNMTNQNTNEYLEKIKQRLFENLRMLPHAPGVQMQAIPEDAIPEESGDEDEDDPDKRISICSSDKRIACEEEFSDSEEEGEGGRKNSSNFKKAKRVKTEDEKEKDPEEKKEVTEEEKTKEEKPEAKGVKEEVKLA

IC50 (Histone deacetylase 1) [nM]	Kd [2] [nM]	IC50 (HCT-116 [1]) [nM]	SMILES	viability at 1 µM (HCT-116 [1]) [%]	further results
493	–	–	Nc1ccccc1NC(=O)c1ccc(CSc2nc(NC3CCNCC3)c3cccn3n2)cc1	78.5	–
2310	754	948	Nc1cc(F)ccc1NC(=O)c1ccc(CSc2nc(N3CCOCC3)c3cccn3n2)cc1	–	–
204	905	1090	Nc1ccccc1NC(=O)c1ccc(CSc2nc(N3CCOCC3)c3cccn3n2)cc1	–	–
336	–	–	COc1ccc(CNc2nc(SCc3ccc(C(=O)Nc4ccccc4N)cc3)nn3cccc23)c(OC)c1	92.5	–
238	–	–	CC(C)(C)c1cc(Nc2nc(SCc3ccc(C(=O)Nc4ccccc4N)cc3)nn3cccc23)n[nH]1	96.1	–
> 10000	–	–	Nc1cc(F)ccc1NC(=O)c1ccc(CSc2nc(NCc3ccc(C(F)(F)F)cc3)c3cccn3n2)cc1	107	–
406	–	–	COc1ccc(CNc2nc(SCc3ccc(C(=O)Nc4ccccc4N)cc3)nn3cccc23)cc1OC	73.9	–
1540	–	–	CC(C)(C)c1cc(Nc2nc(SCc3ccc(C(=O)Nc4ccc(F)cc4N)cc3)nn3cccc23)n[nH]1	108	–
204	945	1370	Cc1cccnc1Nc1nc(SCc2ccc(C(=O)Nc3ccccc3N)cc2)nn2cccc12	–	–
392	356	292	COc1ccc(CNc2nc(SCc3ccc(C(=O)Nc4ccccc4N)cc3)nn3cccc23)cc1	–	–
152	562	959	Cc1cc(Nc2nc(SCc3ccc(C(=O)Nc4ccccc4N)cc3)nn3cccc23)n[nH]1	–	–
2370	–	–	Nc1cc(F)ccc1NC(=O)c1ccc(CSc2nc(NC3CCNCC3)c3cccn3n2)cc1	95.8	–
–	> 10000	2080	Nc1cc(F)ccc1NC(=O)c1ccc(CNC(=O)/C=C/c2cccnc2)cc1 [TUCIDINOSTAT]	–	microsomal CLint [3]: 11.2 µL/min/mg; microsomal CLint [4]: 4.18 µL/min/mg; half-life [5]: 3.17 h; remaining at 2 h, 100 µM [6]: 109%; microsomal CLint [7]: 2.76 µL/min/mg; half-life [8]: 2.05 h; half-life [9]: 8.37 h; remaining at 2 h, 100 µM [10]: 82.1%; half-life [11]: 6.27 h; half-life at 100 µM [12]: 8.83 h; half-life at 100 µM [13]: 16.3 h; remaining at 2 h, 100 µM [14]: 103%; remaining at 2 h, 100 µM [15]: 102%; microsomal CLint [16]: 7.35 µL/min/mg
481	–	–	Nc1ccccc1NC(=O)c1ccc(CSc2nc(NCc3ccc(F)cc3)c3cccn3n2)cc1	83.1	–
5040	514	997	COc1ccc(CNc2nc(SCc3ccc(C(=O)Nc4ccc(F)cc4N)cc3)nn3cccc23)cc1	–	–
8160	–	–	COc1ccc(CNc2nc(SCc3ccc(C(=O)Nc4ccc(F)cc4N)cc3)nn3cccc23)cc1OC	73.9	–
1730	–	–	Nc1ccccc1NC(=O)c1ccc(CSc2nc(NCc3ccc(C(F)(F)F)cc3)c3cccn3n2)cc1	102	–
148	984	–	Nc1ccccc1NC(=O)c1ccc(CSc2nc(Nc3cc[nH]n3)c3cccn3n2)cc1	60.3	IC50 (HCT-116 [17]): 1550 nM
595	426	731	Nc1cc(F)ccc1NC(=O)c1ccc(CSc2nc(Nc3cc[nH]n3)c3cccn3n2)cc1	–	–
4500	–	–	CC(C)(C)OC(=O)N1CCC(Nc2nc(SCc3ccc(C(=O)Nc4ccc(F)cc4N)cc3)nn3cccc23)CC1	105	–
1320	875	857	Cc1cccnc1Nc1nc(SCc2ccc(C(=O)Nc3ccc(F)cc3N)cc2)nn2cccc12	–	–
> 10000	–	–	COc1ccc(CNc2nc(SCc3ccc(C(=O)Nc4ccc(F)cc4N)cc3)nn3cccc23)c(OC)c1	92.5	–
> 10000	–	–	Nc1cc(F)ccc1NC(=O)c1ccc(CSc2nc(NCc3ccc(F)cc3)c3cccn3n2)cc1	89.3	–
871	–	–	CC(C)(C)OC(=O)N1CCC(Nc2nc(SCc3ccc(C(=O)Nc4ccccc4N)cc3)nn3cccc23)CC1	103	–

— ChEMBL document CHEMBL5046255, “Design and synthesis of dual inhibitors targeting snail and histone deacetylase for the treatment of solid tumour cancer” (Eur J Med Chem, 2022)
